Assay results published in US20120258980A1, “Antibacterial Agent for Drug-Resistant Bacteria, Method for Screening for Same, and Use of Same” (priority 2009, published 2012).
Values after ≈ are worked out from the molar mass of the structure shown. Where two headings read alike, the source gives them in different places.

How the values were obtained:
[1] = test system: MRSA, CA-MRSA and MSSA of Staphylococcus aureus; assay: MIC measurement, Test Example 4 (MRSA, CA-MRSA and MSSA strains); assay type: cell-based; settings: Staphylococcus aureus
Experimental: Each of the bacterial strains listed in Table 1-1 was shake-cultured at 37° C. overnight in 4 mL of a medium (Tryptical Soy Broth: TSB, product of Becton Dickinson and Company). FDA209P was used as a control.
After completion of culturing, the resultant culture was suspended in a cation-adjusted Mueller Hinton Broth (CAMHB, product of Becton Dickinson and Company). Then, the obtained bacterial culture was adjusted in absorbance with the CAMHB so that the absorbance at 578 nm of the bacterial culture was adjusted to 0.3 measured by an absorption spectrometer. In addition, the resultant bacterial culture was 500-fold diluted with the CAMHB.
Each of the 500-fold diluted, pre-cultured bacterial cultures was added at 50 μL/well to the CAMHB containing the quinolones and the nybomycins at various concentrations (50 μL/well), followed by statically culturing at 37° C. overnight.
After completion of culturing, the growth of the bacteria was visually determined based on turbidity to measure MIC in each bacterial strain.
Glycopeptides, imipenem, quinolones and nybomycins were studied for antibacterial activity against the bacterial strains listed in Table 2-1; i.e., MRSA, CA-MRSA and MSSA of Staphylococcus aureus.

VRSA clinical isolates = settings: based on NARSA, cited from earlier work
[2] = ATCC 29213 / MRSA / MSSA, ATCC 29213, MSSA
[3] = FDA209P / MRSA / MSSA, FDA209P, MSSA
[4] = MRSA / MSSA / NCTC 8325, NCTC 8325, MSSA
[5] = MRSA / MSSA / USA300, USA300 FPR3757, CA-MRSA

| Structure (SMILES) | MIC [1, 2] | MIC ([1]; COL, MRSA) | MIC [1, 3] | MIC ([1]; ISA12-1, MRSA) | MIC ([1]; ISA12-2, MRSA) | MIC ([1]; ISA35-1, MRSA) | MIC ([1]; ISA37-1, MSSA) | MIC ([1]; ISA49-1, MSSA) | MIC ([1]; ISA51-1, MSSA) | MIC ([1]; ISA56-3, MRSA) | MIC ([1]; ISA58-1, MRSA) | MIC ([1]; ISA62-1, MRSA) | MIC ([1]; ISA73-1, MSSA) | MIC ([1]; KBSA32, MRSA) | MIC ([1]; KBSA34, MRSA) | MIC ([1]; KBSA72, MRSA) | MIC ([1]; KBSA96, MRSA) | MIC ([1]; KBSA171, MRSA) | MIC ([1]; KSA24, MRSA) | MIC ([1]; KSA31, MRSA) | further results |
| --- | --- | --- | --- | --- | --- | --- | --- | --- | --- | --- | --- | --- | --- | --- | --- | --- | --- | --- | --- | --- | --- |
| C[C@H]1COc2c(N3CCN(C)CC3)c(F)cc3c(=O)c(C(=O)O)cn1c23 [LVFX, levofloxacin] | 0.125 µg/mL (≈ 0.346 µM) | 0.5 µg/mL (≈ 1.38 µM) | ≤ 0.063 µg/mL | 0.25 µg/mL (≈ 0.692 µM) | 0.25 µg/mL (≈ 0.692 µM) | 1 µg/mL (≈ 2.77 µM) | 0.25 µg/mL (≈ 0.692 µM) | 0.25 µg/mL (≈ 0.692 µM) | 0.25 µg/mL (≈ 0.692 µM) | 0.25 µg/mL (≈ 0.692 µM) | 0.5 µg/mL (≈ 1.38 µM) | 0.25 µg/mL (≈ 0.692 µM) | 0.125 µg/mL (≈ 0.346 µM) | 0.125 µg/mL (≈ 0.346 µM) | 0.25 µg/mL (≈ 0.692 µM) | > 128 µg/mL | 8 µg/mL (≈ 22.1 µM) | 16 µg/mL (≈ 44.3 µM) | 8 µg/mL (≈ 22.1 µM) | 4 µg/mL (≈ 11.1 µM) | MIC ([1]; KSA36, MRSA): > 128 µg/mL; MIC [1, 4]: 0.25 µg/mL (≈ 0.692 µM); MIC [1, 5]: 32 µg/mL (≈ 88.6 µM); MIC ([1]; MW2, CA-MRSA): 0.125 µg/mL (≈ 0.346 µM); MIC ([1]; N315, MRSA): 0.125 µg/mL (≈ 0.346 µM) |
| CCn1cc(C(=O)O)c(=O)c2cc(F)c(N3CCNCC3)cc21 [NFLX, norfloxacin] | 1 µg/mL (≈ 3.13 µM) | 1 µg/mL (≈ 3.13 µM) | 0.25 µg/mL (≈ 0.783 µM) | 1 µg/mL (≈ 3.13 µM) | 1 µg/mL (≈ 3.13 µM) | 16 µg/mL (≈ 50.1 µM) | 1 µg/mL (≈ 3.13 µM) | 1 µg/mL (≈ 3.13 µM) | 0.5 µg/mL (≈ 1.57 µM) | 0.25 µg/mL (≈ 0.783 µM) | 1 µg/mL (≈ 3.13 µM) | 1 µg/mL (≈ 3.13 µM) | 1 µg/mL (≈ 3.13 µM) | 0.5 µg/mL (≈ 1.57 µM) | 1 µg/mL (≈ 3.13 µM) | > 128 µg/mL | 128 µg/mL (≈ 401 µM) | > 128 µg/mL | 128 µg/mL (≈ 401 µM) | 32 µg/mL (≈ 100 µM) | MIC ([1]; KSA36, MRSA): > 128 µg/mL; MIC [1, 4]: 1 µg/mL (≈ 3.13 µM); MIC [1, 5]: 32 µg/mL (≈ 100 µM); MIC ([1]; MW2, CA-MRSA): 0.5 µg/mL (≈ 1.57 µM); MIC ([1]; N315, MRSA): 1 µg/mL (≈ 3.13 µM) |
| Cc1cc(=O)n2c3c(c4c(cc13)c(CO)cc(=O)n4C)OC2 [NM, nybomycin] | 64 µg/mL (≈ 215 µM) | > 64 µg/mL | 64 µg/mL (≈ 215 µM) | > 64 µg/mL | > 64 µg/mL | > 64 µg/mL | > 64 µg/mL | > 64 µg/mL | > 64 µg/mL | > 64 µg/mL | 16 µg/mL (≈ 53.6 µM) | > 64 µg/mL | > 64 µg/mL | > 64 µg/mL | > 64 µg/mL | ≤ 0.063 µg/mL | 0.125 µg/mL (≈ 0.419 µM) | 0.25 µg/mL (≈ 0.838 µM) | 0.5 µg/mL (≈ 1.68 µM) | 1 µg/mL (≈ 3.35 µM) | MIC ([1]; KSA36, MRSA): ≤ 0.063 µg/mL; MIC [1, 4]: > 64 µg/mL; MIC [1, 5]: 0.25 µg/mL (≈ 0.838 µM); MIC ([1]; MW2, CA-MRSA): 64 µg/mL (≈ 215 µM); MIC ([1]; N315, MRSA): 64 µg/mL (≈ 215 µM) |
| Cc1onc(-c2ccccc2)c1C(=O)N[C@@H]1C(=O)N2[C@@H]1SC(C)(C)[C@@H]2C(=O)O [OXA, oxacillin] | 0.25 µg/mL (≈ 0.623 µM) | > 16 µg/mL | ≤ 0.063 µg/mL | 4 µg/mL (≈ 9.96 µM) | 4 µg/mL (≈ 9.96 µM) | 4 µg/mL (≈ 9.96 µM) | 2 µg/mL (≈ 4.98 µM) | 1 µg/mL (≈ 2.49 µM) | 1 µg/mL (≈ 2.49 µM) | 8 µg/mL (≈ 19.9 µM) | 4 µg/mL (≈ 9.96 µM) | 8 µg/mL (≈ 19.9 µM) | 1 µg/mL (≈ 2.49 µM) | 8 µg/mL (≈ 19.9 µM) | 16 µg/mL (≈ 39.9 µM) | 128 µg/mL (≈ 319 µM) | 128 µg/mL (≈ 319 µM) | > 128 µg/mL | 128 µg/mL (≈ 319 µM) | 128 µg/mL (≈ 319 µM) | MIC ([1]; KSA36, MRSA): > 128 µg/mL; MIC [1, 4]: 1 µg/mL (≈ 2.49 µM); MIC [1, 5]: 16 µg/mL (≈ 39.9 µM); MIC ([1]; MW2, CA-MRSA): 8 µg/mL (≈ 19.9 µM); MIC ([1]; N315, MRSA): 32 µg/mL (≈ 79.7 µM); MIC (VRSA clinical isolates; VRS1, VRSA, Michigan): >16 µg/mL; MIC (VRSA clinical isolates; VRS2, VRSA, Pennsylvania): >16 µg/mL; MIC (VRSA clinical isolates; VRS3, VRSA, New York): >16 µg/mL; MIC (VRSA clinical isolates; VRS4, VRSA, New York): >16 µg/mL; MIC (VRSA clinical isolates; VRS5, VRSA, Michigan): >16 µg/mL; MIC (VRSA clinical isolates; VRS6, VRSA, Michigan): >16 µg/mL; MIC (VRSA clinical isolates; VRS7, VRSA, Michigan): 8 µg/mL (≈ 19.9 µM) |
